Converted amounts (≈) assume the structure as drawn. Blank lines part the entries; values can stand above or below the molecule they belong to. The source made the active and inactive calls. The rule behind the calls is not given here.
Experiments:
[1] = Clearance in human hepatocytes measured per 10^6 cells; format: ADME, cell-based, Hepatocyte; conditions: read-out: CLH
[2] = Half life in dog at 1 mg/kg, iv; format: ADME, organism-based, Canis lupus familiaris; conditions: in vivo
[3] = Metabolic stability in human liver microsomes assessed as compound degradation measured after 30 mins; format: ADME, Microsome; conditions: read-out: Drug degradation
[4] = Volume of distribution in dog at 1 mg/kg, iv; format: ADME, organism-based, Canis lupus familiaris; conditions: in vivo
[5] = Metabolic stability in rat liver microsomes assessed as compound degradation measured after 30 mins; format: ADME, Microsome; conditions: read-out: Drug degradation
[6] = Clearance in rat hepatocytes measured per 10^6 cells; format: ADME, cell-based, Hepatocyte; conditions: read-out: CLH
[7] = Half life in rat at 1 mg/kg, iv measured after 12 hrs; format: ADME, organism-based; conditions: in vivo
Ketohexokinase [8] = target: T1, Ketohexokinase (Homo sapiens, UniProt P50053); assay: Inhibition of KHK in human HepG2 cells incubated for 3 hrs by Rapidfire MS analysis; format: cell-based
T1 sequence (P50053 whole entry): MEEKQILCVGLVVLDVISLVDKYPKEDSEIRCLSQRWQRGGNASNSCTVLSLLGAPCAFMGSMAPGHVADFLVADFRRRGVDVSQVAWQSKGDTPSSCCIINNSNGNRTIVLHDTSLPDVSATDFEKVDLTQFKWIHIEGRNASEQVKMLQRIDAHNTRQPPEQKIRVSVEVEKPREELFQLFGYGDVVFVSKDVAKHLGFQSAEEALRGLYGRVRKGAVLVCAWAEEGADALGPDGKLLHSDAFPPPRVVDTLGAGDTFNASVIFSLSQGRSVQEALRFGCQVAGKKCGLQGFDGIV

[9] = Clearance in dog at 1 mg/kg, iv; format: ADME, organism-based, Canis lupus familiaris; conditions: in vivo
[10] = Inhibition of mouse KHK-C
[11] = Thermodynamic solubility of the compound […] at pH 7.4; format: physicochemical; conditions: read-out: Therm_solubility
[12] = Inhibition of mouse KHK-A
Hepatocyte = assay: Cytotoxicity against rat Primary hepatocyte; format: toxicity, cell-based; conditions: hepatocytes
[13] = Cmax in dog at 1 mg/kg, iv; format: ADME, organism-based, Canis lupus familiaris; design: dose 1 mg/kg, route iv; conditions: in vivo
[14] = Clearance in dog hepatocytes measured per 10^6 cells; format: ADME, cell-based, Canis lupus familiaris, Hepatocyte; conditions: read-out: CLH
[15] = Metabolic stability in mouse liver microsomes assessed as compound degradation measured after 30 mins; format: ADME, Microsome; conditions: read-out: Drug degradation
[16] = AUC in rat at 3 mg/kg, po measured after 12 hrs; format: ADME, organism-based; design: dose 3 mg/kg, time 12 hrs, route po; conditions: in vivo
[17] = Oral bioavailability in rat at 3 mg/kg measured after 12 hrs; format: ADME, organism-based; conditions: in vivo
[18] = Permeability in MDCK cells assessed as drug transport measured over 1 hr in presence of P-gp; format: ADME, cell-based, Canis lupus familiaris; conditions: dog
[19] = Cmax in rat at 3 mg/kg, po measured after 12 hrs; format: ADME, organism-based; design: dose 3 mg/kg, time 12 hrs, route po; conditions: in vivo
[20] = Volume of distribution in rat at 1 mg/kg, iv measured after 12 hrs; format: ADME, organism-based; conditions: in vivo
[21] = Metabolic stability in dog liver microsomes assessed as compound degradation measured after 30 mins; format: ADME, Canis lupus familiaris, Microsome; conditions: read-out: Drug degradation
[22] = Clearance in rat at 1 mg/kg, iv measured after 12 hrs; format: ADME, organism-based; conditions: in vivo
[23] = Tmax in rat at 3 mg/kg, po measured after 12 hrs; format: ADME, organism-based; conditions: in vivo
[24] = AUC in rat at 1 mg/kg, iv measured after 12 hrs; format: ADME, organism-based; design: time 12 hrs, dose 1 mg/kg, route iv; conditions: in vivo
[25] = Cmax in rat at 1 mg/kg, iv measured after 12 hrs; format: ADME, organism-based; design: dose 1 mg/kg, time 12 hrs, route iv; conditions: in vivo
[26] = AUC in dog at 1 mg/kg, iv; format: ADME, organism-based, Canis lupus familiaris; design: dose 1 mg/kg, route iv; conditions: in vivo
[27] = Half life in rat at 3 mg/kg, po measured after 12 hrs; format: ADME, organism-based; conditions: in vivo
[28] = Oral bioavailability in dog at 3 mg/kg; format: ADME, organism-based, Canis lupus familiaris; conditions: in vivo
[29] = Half life in dog at 3 mg/kg, po; format: ADME, organism-based, Canis lupus familiaris; conditions: in vivo
[30] = Cmax in dog at 3 mg/kg, po; format: ADME, organism-based, Canis lupus familiaris; design: dose 3 mg/kg, route po; conditions: in vivo
[31] = AUC in dog at 3 mg/kg, po; format: ADME, organism-based, Canis lupus familiaris; design: dose 3 mg/kg, route po; conditions: in vivo
[32] = Tmax in dog at 3 mg/kg, po; format: ADME, organism-based, Canis lupus familiaris; conditions: in vivo
[33] = Unbound fraction in human plasma at 1 uM; format: ADME, cell-free
[34] = Oral bioavailability in dog at 2 mg/kg; format: ADME, organism-based, Canis lupus familiaris; conditions: in vivo
[35] = Unbound fraction in mouse plasma at 1 uM; format: ADME, cell-free
[36] = Half life in dog at 2 mg/kg, po; format: ADME, organism-based, Canis lupus familiaris; conditions: in vivo
[37] = Unbound fraction in dog plasma at 1 uM; format: ADME, cell-free, Canis lupus familiaris
[38] = Drug distribution in mouse heart at 30 mg/kg, po measured at 180 mins; format: ADME, organism-based; conditions: in vivo, 3 h
[39] = Cmax in dog at 2 mg/kg, po; format: ADME, organism-based, Canis lupus familiaris; design: dose 2 mg/kg, route po; conditions: in vivo
[40] = Half life in rat at 2 mg/kg, po measured after 12 hrs; format: ADME, organism-based; conditions: in vivo
[41] = Drug distribution in mouse liver at 30 mg/kg, po measured at 180 mins; format: ADME, organism-based; conditions: in vivo, 3 h
Mus musculus [42] = assay: Reduction in fructose level in 5 hrs fasted C57B6 mouse by measuring pharmacodynamic response administered via oral gavage for 30 mins followed by oral fructose challenge and measured upto 180 mins by oral fructose tolerance test; format: functional; conditions: dose 30-100 mg/kg, time […]
[43] = Unbound fraction in rat plasma at 1 uM; format: ADME, cell-free
[44] = Drug distribution in mouse kidney at 30 mg/kg, po measured at 180 mins; format: ADME, organism-based; conditions: in vivo, 3 h
[45] = AUC in rat at 2 mg/kg, po measured after 12 hrs; format: ADME, organism-based; design: time 12 hrs, dose 2 mg/kg, route po; conditions: in vivo
[46] = Tmax in dog at 2 mg/kg, po; format: ADME, organism-based, Canis lupus familiaris; conditions: in vivo
[47] = Tmax in rat at 2 mg/kg, po measured after 12 hrs; format: ADME, organism-based; conditions: in vivo
[48] = AUC in dog at 2 mg/kg, po; format: ADME, organism-based, Canis lupus familiaris; design: dose 2 mg/kg, route po; conditions: in vivo
[49] = Oral bioavailability in rat at 2 mg/kg measured after 12 hrs; format: ADME, organism-based; conditions: in vivo
[50] = Cmax in rat at 2 mg/kg, po measured after 12 hrs; format: ADME, organism-based; design: time 12 hrs, dose 2 mg/kg, route po; conditions: in vivo
Ketohexokinase [51] = target: T1, Ketohexokinase; assay: Inhibition of human KHK-C preincubated for 15 mins followed by substrate addition and measured after 20 mins in presence of ATP by Rapidfire MS analysis
Mus musculus [52] = assay: Reduction in fructose level in 5 hrs fasted C57B6 mouse assessed as maximum effect at 100 mg/kg administered via oral gavage measured upto 180 mins by oral fructose challenge assay; format: functional, organism-based

hepatocyte CLint [1]: 2.8 µL/min/1e6 cells | half-life [2]: 5.2 h | metabolised at 0.5 h [3]: 4% | Vd [4]: 1.4 L/kg | metabolised at 0.5 h [5]: 21% | hepatocyte CLint [6]: 12 µL/min/1e6 cells | half-life [7]: 2.2 h | IC50 (Ketohexokinase [8]): 84 nM | clearance [9]: 5 mL/min/kg | IC50 [10]: 28 nM | solubility thermodynamic [11]: 39 µg/mL (≈ 95.5 µM) | IC50 [12]: 12 nM | Cmax [13]: 2340 nM | hepatocyte CLint [14]: 3.2 µL/min/1e6 cells | metabolised at 0.5 h [15]: 19% | AUC at 12 h [16]: 5.09 µM·h | bioavailability [17]: 62% | Drug transport [18]: 15% | Cmax [19]: 827 nM | Vd [20]: 2.9 L/kg | metabolised at 0.5 h [21]: 7% | clearance [22]: 16 mL/min/kg | Tmax [23]: 1.2 h | AUC at 12 h [24]: 2.62 µM·h | Cmax [25]: 1910 nM | AUC [26]: 9.04 µM·h | half-life [27]: 3 h
Structure (SMILES): C[C@H]1CCN1c1nc(-c2cnn(CC(=O)NCCO)c2)cc(C(F)(F)F)c1C#N
LC20 (Hepatocyte): > 50000 nM

hepatocyte CLint [1]: 1.8 µL/min/1e6 cells | half-life [2]: 5 h | metabolised at 0.5 h [3]: 3% | Vd [4]: 8.4 L/kg | metabolised at 0.5 h [5]: 0% | hepatocyte CLint [6]: < 1.8 µL/min/1e6 cells | half-life [7]: 4.3 h | clearance [9]: 23 mL/min/kg | IC50 [10]: 177 nM | solubility thermodynamic [11]: 750 µg/mL (≈ 1960 µM) | IC50 [12]: 56 nM | Cmax [13]: 2940 nM | hepatocyte CLint [14]: 3.4 µL/min/1e6 cells | bioavailability [28]: 100% | metabolised at 0.5 h [15]: 13% | AUC at 12 h [16]: 1.95 µM·h | bioavailability [17]: 95% | Drug transport [18]: 3.2% | Cmax [19]: 424 nM | Vd [20]: 17 L/kg | metabolised at 0.5 h [21]: 7% | half-life [29]: 10 h | Cmax [30]: 609 nM | AUC [31]: 10.3 µM·h | clearance [22]: 56 mL/min/kg | Tmax [23]: 1.7 h | AUC at 12 h [24]: 0.69 µM·h | Tmax [32]: 2.3 h | Cmax [25]: 310 nM | AUC [26]: 1.97 µM·h | half-life [27]: 5 h
Structure (SMILES): OC[C@H]1CCN1c1nc(-c2cnn(C3CCNCC3)c2)cc(C(F)(F)F)n1
LC20 (Hepatocyte): > 50000 nM

fraction unbound at 1 µM [33]: 0.15 | hepatocyte CLint [1]: < 1.8 µL/min/1e6 cells | half-life [2]: 28 h | metabolised at 0.5 h [3]: 0% | bioavailability [34]: 87% | Vd [4]: 7.8 L/kg | fraction unbound at 1 µM [35]: 0.15 | half-life [36]: 37 h | fraction unbound at 1 µM [37]: 0.24 | metabolised at 0.5 h [5]: 18% | hepatocyte CLint [6]: 2.2 µL/min/1e6 cells | Drug uptake [38]: Active | Cmax [39]: 657 nM | half-life [7]: 13 h | half-life [40]: 13 h | IC50 (Ketohexokinase [8]): 41 nM | Drug uptake [41]: Active | clearance [9]: 3 mL/min/kg | solubility thermodynamic [11]: 520 µg/mL (≈ 1270 µM) | IC50 [12]: 14 nM | fraction unbound at 1 µM [43]: 0.18 | Cmax [13]: 3000 nM | hepatocyte CLint [14]: < 1.8 µL/min/1e6 cells | Drug uptake [44]: Active | AUC at 12 h [45]: 11.6 µM·h | metabolised at 0.5 h [15]: 17% | Tmax [46]: 1.7 h | Drug transport [18]: 4.4% | Tmax [47]: 4.7 h | Vd [20]: 6.5 L/kg | metabolised at 0.5 h [21]: 28% | AUC [48]: 23.2 µM·h | clearance [22]: 6 mL/min/kg | AUC at 12 h [24]: 7.06 µM·h | bioavailability [49]: 83% | Cmax [50]: 717 nM | IC50 (Ketohexokinase [51]): 20 nM | Cmax [25]: 942 nM | AUC [26]: 12.9 µM·h
Structure (SMILES): C[C@H]1CCN1c1nc(-c2cnn(CC(=O)N3CCNCC3)c2)cc(C(F)(F)F)n1 [LY-3522348]
Activity (Mus musculus [42]): Dose-Dependent Effect | LC20 (Hepatocyte): > 50000 nM

IC50 [10]: 20 nM | IC50 [12]: 30 nM
Structure (SMILES): C[C@H]1CCN1c1nc(N2C[C@@H]3[C@@H](CC(=O)O)[C@@H]3C2)cc(C(F)(F)F)n1 [PF-06835919]
Activity (Mus musculus [52]): Active

Reference: ChEMBL document CHEMBL5375962 (J Med Chem, 2023)
